In test [1] the target is T1, HsAPT1 (Homo sapiens, UniProt O75608). Description: 4-NPO esterase activity assay, recombinant HsAPT1. Type of test: biochemical. On the set-up: made in house; host or cells: E. coli BL21(DE3)pLysS. An excerpt: (§1) We recently performed a phenotypic screen to identify small-molecule modulators of host cell invasion by the apicomplexan parasite T. gondii. The small-molecules in this directed screen were expected to covalently modify protein targets in an activity-dependent manner. Unexpectedly, this screen not only identified inhibitors of parasite invasion, but also compounds that enhanced host cell invasion. Enhancer compounds were all structurally similar substituted chloroisocoumarins. Using an alkynylated version of the lead enhancer compound (JCP174), we identified the phenotypically relevant target of the enhancer phenotype as the previously uncharacterized thioesterase TgPPT1 [12]. TgPPT1 is the orthologue of the human depalmitoylase HsAPT1, sharing 33% identity by BLAST analysis. […] Therefore, we screened a focused library of substituted chloroisocoumarins to identify compounds that inhibited HsAPT1 and HsAPT2 activity. […] To measure the enzymatic activity of recombinant HsAPT1 and HsAPT2, we used the previously reported substrate, 4-nitrophenyl octanoate (4-NPO), in which enzymatic cleavage of the ester linkage can be measured by UV/Vis spectroscopy upon release of 4-nitrophenolate (Fig 1A). Using this activity readout, we performed our screen with recombinant HsAPT1 and HsAPT2 using a focused library of 100 substituted chloroisocoumarins (Fig 1B). Compounds that produced >50% inhibition of either HsAPT1 or HsAPT2 activity relative to the DMSO control at 10 μM were then re-screened across a range of concentrations to determine in vitro IC50 values (Fig 1C and 1D). Compounds with IC50 values <10 μM for both HsAPT1 and HsAPT2 were scored as hits. According to these criteria, our screen achieved a hit rate of 7% (Table 1). […] We next tested the potency of JCP174 for both enzymes with increasing preincubation times from 30 minutes to 6 hours. The potency of JCP174 increased with longer pre-incubation times for both targets, indicating an irreversible covalent mechanism (S1 Table). […] (S1 Table).
T1 sequence (O75608 whole entry): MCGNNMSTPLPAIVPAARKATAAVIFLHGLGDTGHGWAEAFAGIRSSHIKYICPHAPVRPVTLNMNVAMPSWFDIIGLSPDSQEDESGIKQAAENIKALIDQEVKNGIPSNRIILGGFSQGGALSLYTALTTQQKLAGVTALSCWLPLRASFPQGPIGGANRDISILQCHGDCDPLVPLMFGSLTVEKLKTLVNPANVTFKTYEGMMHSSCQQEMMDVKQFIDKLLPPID
(§2) The 4-nitropenhyl octanoate (4-NPO) activity assay was modified from Dekker et al.. Briefly, 50 μL 20 mM HEPES, 150 mM NaCl, 0.01% v/v Triton-X 100, pH 7.4 buffer with the indicated concentrations of inhibitor or buffer control was added to 96-well plates. To each well, 30 μL of recombinantly expressed enzyme diluted to 1 μM in 20 mM HEPES, 150 mM NaCl, 0.01% v/v Triton-X 100, pH 7.4 buffer was added. The inhibitor and enzyme reaction was incubated at 37°C for 30 minutes before 20 μL of 4-NPO (3.0 mM) was added to the reaction in 20 mM HEPES, 150 mM NaCl, 0.25% v/v Triton-X 100, pH 7.4 buffer. The reaction progress was measured using a Cytation 3 plate reader at 401 nm at 1-minute intervals for 40 minutes.

Test [2] has as its target T2, HsAPT2 (Homo sapiens, UniProt O95372). Description: 4-NPO esterase activity assay, recombinant HsAPT2. Type of test: biochemical. More on the design: made in house; host or cells: E. coli BL21(DE3)pLysS.
Excerpt: as §1, §2

Test [3] relates to TgPPT1. The class given is cell-based, Toxoplasma gondii.
Test [4] deals with HsAPT1 and HsAPT2 in intact U-2 OS cells. Description: Intact mammalian cell labeling, in-gel fluorescence. Type of test: cell-based, human.
The subject of test [5] is TgPPT1. Description: In-gel labeling of recombinant TgPPT1 with JCP174-BT. Type of test: binding, Toxoplasma gondii. The conditions noted are these: 1 μM probe.
Test [6] addresses T1, HsAPT1. Kind of test: FP-rhodamine ABP competition labeling, U-2 OS (HsAPT1 band). Type of test: cell-based. Particulars: intact U-2 OS cells pretreated 1 hour, washed, lysates labeled with FP-rho.
Test [7] concerns the target T2, HsAPT2. Description: FP-rhodamine ABP competition labeling, U-2 OS (HsAPT2 band). The conditions noted are these: intact U-2 OS cells pretreated 1 hour, washed, lysates labeled with FP-rho. The class given is cell-based.
Where [8] appears, read: rHsAPT1, 4-NPO substrate, 30 minutes preincubation at 37°C.
Setting [9] is: rHsAPT2, 4-NPO substrate, 30 minutes preincubation at 37°C.

Where “and” joins values, the source holds several entries; their conditions need not be identical. Equal values may be shown once.

The source of these data is publication PMC5783350, “Development of an activity-based probe for acyl-protein thioesterases” (PLoS ONE, 2018).

T2 sequence (O95372 whole entry): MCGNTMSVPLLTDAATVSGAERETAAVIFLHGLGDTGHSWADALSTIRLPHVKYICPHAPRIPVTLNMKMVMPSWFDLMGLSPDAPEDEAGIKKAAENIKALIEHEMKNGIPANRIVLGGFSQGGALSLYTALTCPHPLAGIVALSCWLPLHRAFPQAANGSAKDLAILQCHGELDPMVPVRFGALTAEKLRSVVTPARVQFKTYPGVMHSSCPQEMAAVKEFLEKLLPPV

For the compound `O=c1oc(Cl)c(Cl)c2ccccc12` [DCI, dichloroisocoumarin, reference compound], the IC50 on HsAPT1 [1] (setting [8]) was found to be 1700 nM; on HsAPT2 [2] (setting [9]), 2700 nM.
For `CCOc1oc(=O)c2cc(NC(=S)Nc3ccccc3)ccc2c1Cl` [JCP154] the same measures were 1800 nM and 2900 nM.
On to `COc1ccc(-c2ccc3n2[B-](F)(F)[N+]2=C(C)C(CCC(=O)NCCCn4cc(CCOc5oc(=O)c6cc(N)ccc6c5Cl)nn4)=C(C)C2=C3)cc1` [JCP174-BODIPY TMR], for which the IC50 on HsAPT1 [1] (setting [8]) is 3000 nM; at HsAPT2 [2] (setting [9]), 1800 nM. In addition, the “Labeling of TgPPT1 in intact T. gondii tachyzoites” value with TgPPT1 [3] is “strong labeling of TgPPT1 in intact cells”. Besides, in test [4], the “Labeling of HsAPT1 and HsAPT2 in intact U-2 OS cells” value is “labeled APT1 and APT2 in intact cells”. For the same compound, in the test with TgPPT1 [5] (recombinant TgPPT1 S128A), the “Covalent labeling of active site mutant TgPPT1 S128A” value is recorded as “did not label the active site mutant”. Moreover, the “Covalent labeling of wild-type TgPPT1” value in the test on TgPPT1 [5] (recombinant TgPPT1 WT) is “covalently modified”.
In the case of `C#CCCOc1oc(=O)c2cc(N)ccc2c1Cl` [JCP174-alk, 3-(3-Butynoxy)-4-chloro-7-amino-isocoumarin], the IC50 at HsAPT1 [1] (setting [8]) was 925 nM and 930 nM; at HsAPT2 [2] (setting [9]), 498 nM and 500 nM.
In the case of `O=C(O)c1cccc(NC(=S)Nc2ccc3c(Cl)c(OCCBr)oc(=O)c3c2)c1` [JCP342], the IC50 on HsAPT1 [1] (setting [8]) was found to be 1500 nM; on HsAPT2 [2] (setting [9]), 5200 nM.
In the case of `O=c1oc(OCCBr)c(Cl)c2ccc(NC(=S)Nc3ccccc3)cc12` [JCP343], the IC50 at HsAPT1 [1] (setting [8]) amounted to 1400 nM; at HsAPT2 [2] (setting [9]) it was 9100 nM.
On the same counts, the results for `O=C(O)c1ccc(NC(=S)Nc2ccc3c(Cl)c(OCCBr)oc(=O)c3c2)cc1` [JCP345] are 7100 nM and 8500 nM.
Regarding `CC(CBr)Oc1oc(=O)c2cc(N)ccc2c1Cl` (stereo not shown) [JCP362], the IC50 at HsAPT1 [1] (setting [8]) is 1200 nM; at HsAPT2 [2] (setting [9]), 950 nM.
As for `CCCCCCCCCC[C@@H]1C(=O)O[C@H]1CCc1ccc(OC)c(OC)c1` [Palmostatin B, palmostatin B, reference compound], the “Competition for FP-rho labeling of HsAPT1” value on HsAPT1 [6] was “competed for the same two species”. For the same compound, the IC50 on HsAPT1 [1] (preincubation time 2 hr) turned out to be 2500 nM; on HsAPT1 [1] (preincubation time 6 hr), 6800 nM; at HsAPT1 [1] (setting [8]), 310 nM; on HsAPT2 [2] (preincubation time 2 hr), 700 nM; at HsAPT2 [2] (preincubation time 6 hr), 1600 nM; at HsAPT2 [2] (setting [9]) it was 320 nM. Moreover, the “Competition for FP-rho labeling of HsAPT2” value on HsAPT2 [7] is “competed for the same two species”.

For orientation: IC50 means the concentration that gives 50% inhibition.
